Measured values: US20090227587A1, “Pyrimidines as inhibitors of phosphoinositide-3-kinases (PI3K)” (Warner-Lambert Company LLC, priority 2003, published 2009)

Assays:
[1] = target: T1, p101/p110γ protein (PI3Kγ) (Homo sapiens, UniProt P48736); assay: PI3Kγ in vitro kinase assay; assay type: biochemical; details: purified recombinant p101/p110γ with G protein β1/γ2 subunits, 20 μM ATP, PIP2 lipid micelles
T1 construct: HA; made in house; host or cells: Spodoptera frugiperda (Sf9) cells, baculovirus co-infection
Description: Spodtera frugiperda cells, grown in ESF921 media, were co-infected with baculovirus expressing a glu-tagged p101 and baculovirus expressing an HA-tagged p110γ, at a 3:1 ratio of p101 baculovirus to p110γ baculovirus. Sf9 cells were grown to 1×10^7 total cells/mL in 10 L bioreactors and harvested 48-72 hours post infection. Samples of infected cells were then tested for expression of p101/p110γ PI3 kinase by immunoprecipitation and Western Blot analysis methods (see below).
To purify PI3Kγ, 4 volumes of room temperature hypotonic lysis buffer (1 mM MgCl2, 1 mM DTT, 5 mM EGTA, 1 mM Pefabloc, 0.5 μM aprotinin, 5 μM leupeptin, 2 μM pepstatin, 5 μM E64, pH 8) per gram of cell paste, was poured onto frozen cell pellets with stirring, then lysed in a nitrogen “bomb” at 400 psi (599HC T316, Parr Instrument Co, Moline, Ill.). NaCl was added to 150 mM, and sodium cholate was added to 1% and mixed for another 45 minutes. The lysates were clarified by centrifugation for 25 minutes at 14,000 rpm. The lysates were then loaded over anti-glu-linked Protein-G Sepaharose beads (Covance Research Products, Richmond, Calif.) using 20 mL resin/50 g cell paste. The column was washed with 15 volumes of wash buffer (1 mM DTT, 0.2 mM EGTA, 1 mM Pefabloc, 0.5 μM aprotinin, 5 μM leupeptin, 2 μM pepstatin, 5 μM E64, 150 mM NaCl, 1% sodium cholate, pH 8). PI3Kγ was eluted with 6 column volumes of wash buffer that contain 100 μg/mL of a peptide that competes for binding of the glu tag. The column fractions with the eluted protein (determined by taking OD280 readings) were collected and dialyzed in 0.2 mM EGTA, 1 mM DTT, 1 mM Pefabloc, 5 μM leupeptin, 0.5% sodium cholate, 150 mM NaCl, and 50% glycerol, pH 8. The fractions were stored at −80° C. until further use.
Spodtera frugiperda cells were coinfected with baculovirus expressing a glu-tagged G protein β1 and baculovirus expressing a G protein […], at a 1:1 ratio of glu-tagged G protein […] baculovirus to G protein β2 baculovirus. Sf9 cells are grown in 10 L bioreactors and harvested 48-72 hours post infection. Samples of infected cells were tested for G protein β1/β2 expression by Western Blot analysis, as described below. Cell lysates were homogenized and loaded onto a column of glu-tagged beads as in Biological Example 1 and competed off the column with a glu peptide and processed as described in Biological Example 1.
The inhibitory properties of the compounds in Table 1 were assayed in an in vitro PI3K assay. In a 96-well polypropylene plate, each well was spotted with 2 μL of 50 times the desired final concentration of compound in DMSO. Purified recombinant p101/p110γ protein (0.03 μg; ˜2.7 nM) and G protein β1/γ2 subunits (0.09 μg; ˜57.7 nM) for each reaction was combined in the assay buffer (30 mM HEPES, 100 mM NaCl, 1 mM EGTA, and 1 mM DTT). ATP and [γ-^32P-ATP] (0.09 μCi) were added to this mixture so that the final ATP concentration in the reaction was 20 μM. Lipid micelles were formed by sonicating phosphatidylinositol-4,5-diphosphate (PIP2), phosphatidylethanolamine (PE), and Na-cholate in the assay buffer for 10 minutes, adding MgCl2 and incubating on ice for 20 minutes, for final concentrations of 25 μM PIP2, 300 μM PE, 0.02% Na-cholate, and 10 mM MgCl2 in the reaction. The reactions were started by adding equal volumes lipid and enzyme mixture in a total volume of 50 μL, allowed to run for 20 minutes at room temperature, and stopped with 100 μL 75 mM H3PO4. The lipid product was transferred to a glass fiber filter plate and washed with 75 mM H3PO4 several times. The presence of radioactive lipid product (PIP3) was measured by adding Wallac Optiphase mix to each well and counting in a Wallac 1450 Trilux plate reader (PerkinElmer Life Sciences Inc., Boston, Mass. 02118). The IC50 for each compound tested is reported in μM in the Tables above.

[2] = test system: DBA/1 LacJ mice, collagen induced arthritis; assay: Murine collagen induced arthritis; assay type: in vivo; details: 30 mg/kg q.d. oral gavage for two weeks beginning on day 27, female DBA/1 LacJ mice
Description: Bovine type II collagen (University of Utah) was diluted with 0.01N acetic acid to a concentration of 2 mg/mL and emulsified with an equal volume of Freund's complete adjuvant (Difco, Detroit, Mich.) supplemented with 1 mg/mL Mycobacterium tuberculosis Hra37. Age-matched (8-12 weeks) female DBA/1 LacJ mice (Jackson Laboratories, Bar Harbor, Me.) were immunized with 100 μL of emulsion (100 μg collagen) intradermally at the base of the tail. On Day 28 after immunization, the mice were given 50 μg Lipopolysaccharide (Sigma Aldrich, St Louis, Mo.) intraperitoneally (IP) in 100 μL saline. The compound of Example 1 (4-Cycloheptyloxy-2-morpholin-4-yl-pyrimidine-5-carboxylic acid (2H-tetrazol-5-yl)-amide) was dosed at 30 mg/kg q.d. by oral gavage for two weeks beginning on day 27. The development of arthritis was assessed on Days 27, 31, 34, 37, and 41. A clinical score was given to each limb using the following scale: (0) normal, (1) erythema and edema, (2) joint distortion, (3) joint ankylosis. Edema measurements on front paws, rear paws, and ankles were taken using constant tension calipers (Dyer, Lancaster, Pa.). The compound of Example 1 at 30 mg/kg q.d. inhibited paw edema in this model by 52%, and clinical score by 35%.

[3] = test system: Lewis rats, streptococcal cell wall-induced paw edema; assay: SCW streptococcal cell wall-induced paw edema; assay type: in vivo; details: 10, 30 and 100 mg/kg q.d. oral gavage for four days beginning on day 21, female Lewis rats
Description: Female Lewis rats (˜150 g) received 6 μg SCW in 10 μl Dulbecco's PBS by an intraarticular injection to the right tibiotalar joint on day 0. On day 21, the recurrence response was initiated with 100 μg SCW (250 μl, i.v.). Vehicle (0.5% hydroxypropylmethylcellulose/0.2% Tween 80) or the compound of Example 1 (4-Cycloheptyloxy-2-morpholin-4-yl-pyrimidine-5-carboxylic acid (2H-tetrazol-5-yl)-amide) was given orally (10 ml/kg volume), q.d., 1 hr prior to SCW, i.v., and on subsequent days. Baseline volumes of the sensitized hind paw were measured by a mercury displacement plethysmometer before disease initiation on day 21, and subtracted from subsequent assessments (made 24 hrs after each dose) to determine the Δ value (the difference between paw volume prior to disease initiation on day 21 and the paw volume 24 hours after each dose). The compound of Example 1 was dosed at 10, 30 and 100 mg/kg q.d. by oral gavage for four days beginning on day 21.

T1 sequence (P48736 whole entry, species assumed): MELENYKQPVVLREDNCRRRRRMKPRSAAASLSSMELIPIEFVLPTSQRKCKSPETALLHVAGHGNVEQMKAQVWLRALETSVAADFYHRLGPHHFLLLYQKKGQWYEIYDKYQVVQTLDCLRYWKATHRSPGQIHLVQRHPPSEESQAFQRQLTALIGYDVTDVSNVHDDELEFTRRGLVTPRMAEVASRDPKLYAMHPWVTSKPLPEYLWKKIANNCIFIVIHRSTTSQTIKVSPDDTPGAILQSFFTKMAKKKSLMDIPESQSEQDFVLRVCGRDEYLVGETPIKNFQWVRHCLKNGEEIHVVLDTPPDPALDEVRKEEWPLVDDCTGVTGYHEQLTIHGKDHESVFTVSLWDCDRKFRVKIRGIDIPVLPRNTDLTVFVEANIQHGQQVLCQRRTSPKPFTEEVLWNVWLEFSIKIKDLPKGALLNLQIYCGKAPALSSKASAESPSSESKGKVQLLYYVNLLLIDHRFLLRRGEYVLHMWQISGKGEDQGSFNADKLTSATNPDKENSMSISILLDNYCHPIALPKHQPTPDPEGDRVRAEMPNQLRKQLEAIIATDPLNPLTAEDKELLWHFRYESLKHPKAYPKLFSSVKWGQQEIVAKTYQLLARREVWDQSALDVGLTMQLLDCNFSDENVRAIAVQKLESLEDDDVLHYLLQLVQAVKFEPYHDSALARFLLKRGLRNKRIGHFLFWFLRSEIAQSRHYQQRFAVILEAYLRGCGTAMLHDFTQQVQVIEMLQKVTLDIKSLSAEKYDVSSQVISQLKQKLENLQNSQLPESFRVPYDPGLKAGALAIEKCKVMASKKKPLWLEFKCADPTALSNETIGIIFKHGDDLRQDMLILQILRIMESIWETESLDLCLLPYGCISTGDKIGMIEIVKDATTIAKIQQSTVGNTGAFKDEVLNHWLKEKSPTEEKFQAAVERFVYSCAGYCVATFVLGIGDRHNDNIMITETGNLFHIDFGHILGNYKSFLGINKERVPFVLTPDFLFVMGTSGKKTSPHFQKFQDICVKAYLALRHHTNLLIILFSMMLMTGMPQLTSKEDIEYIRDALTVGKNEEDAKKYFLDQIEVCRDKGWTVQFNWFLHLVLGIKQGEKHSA
T1 sequence (Q8WYR1 whole entry partner, species assumed): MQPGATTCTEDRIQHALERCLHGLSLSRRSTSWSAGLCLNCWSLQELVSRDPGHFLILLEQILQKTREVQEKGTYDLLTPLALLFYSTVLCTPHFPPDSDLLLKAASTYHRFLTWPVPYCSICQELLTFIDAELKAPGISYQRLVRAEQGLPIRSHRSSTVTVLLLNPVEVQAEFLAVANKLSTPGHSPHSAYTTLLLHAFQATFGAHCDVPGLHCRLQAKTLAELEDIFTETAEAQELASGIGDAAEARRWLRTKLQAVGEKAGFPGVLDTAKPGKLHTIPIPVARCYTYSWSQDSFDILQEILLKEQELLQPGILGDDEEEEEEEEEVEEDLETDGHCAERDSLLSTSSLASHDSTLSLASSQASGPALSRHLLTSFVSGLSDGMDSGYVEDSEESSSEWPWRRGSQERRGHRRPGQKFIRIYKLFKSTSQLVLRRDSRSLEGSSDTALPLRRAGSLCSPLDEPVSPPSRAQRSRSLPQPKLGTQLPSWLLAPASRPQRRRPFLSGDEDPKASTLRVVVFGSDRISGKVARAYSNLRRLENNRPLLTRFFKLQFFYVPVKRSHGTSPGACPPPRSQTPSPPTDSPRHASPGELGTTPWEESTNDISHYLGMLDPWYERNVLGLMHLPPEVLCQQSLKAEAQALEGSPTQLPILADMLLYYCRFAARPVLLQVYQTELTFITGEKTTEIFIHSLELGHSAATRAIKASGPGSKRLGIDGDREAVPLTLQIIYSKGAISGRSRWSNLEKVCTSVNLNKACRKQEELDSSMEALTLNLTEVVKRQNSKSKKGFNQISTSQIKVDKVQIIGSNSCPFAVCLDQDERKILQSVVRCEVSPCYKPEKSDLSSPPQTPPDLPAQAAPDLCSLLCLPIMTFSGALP

O=C(Nc1nn[nH]n1)c1cnc(N2CCOCC2)nc1OC1CCCCCC1 [Example 1, 4-Cycloheptyloxy-2-morpholin-4-yl-pyrimidine-5-carboxylic acid (2H-tetrazol-5-yl)-amide]
IC50 [1]: 197 nM
inhibition of clinical score [2]: 35%
inhibition of paw edema [2]: 52%
ID50 for inhibition of paw edema [3]: 16.3 mg/kg
